Tests used:
[1] = system: eDHFR-Luc; assay: Degradation of luciferase in HEK293T-DL cells, luminescence; assay type: cell-based, Escherichia coli; settings: 12 and 24 h, varying doses
[2] = system: IFNγ; assay: Cytokine release assay, IFNγ ELISA of killing assay supernatant; assay type: cell-based, human; settings: for T cell IFNγ release / secretion: supernatant of killing assay, 100 nM compound
Description: The concentration of TNF-α and IFN-g in the supernatants following killing assay was determined by ELISA.

[3] = system: FAP CAR-eDHFR fusion protein; assay: CAR downregulation in Jurkat cells expressing FAP CAR-eDHFR fusion protein, flow cytometry; assay type: cell-based, Escherichia coli; settings: serial time points
Source text: Data plotted as raw CAR stain fluorescence is shown in the left panel and percent of maximum CAR expression is shown in the right panel.

[4] = system: eDHFR-YFP; assay: Washout experiment, reversal of YFP degradation in Jurkat eDHFR-YFP+ cells, flow cytometry; assay type: cell-based, Escherichia coli; settings: 100 nM, washout after 24 h
Description: Jurkat^eDHFR-YFP+ cells were seeded in a clear (Falcon) 12-well plate (3×10^5 cells/well) in complete media and incubated overnight. The following day, all wells were dosed with 100 nM of 7c, and cells were sampled at 0, 4, 8, 12, and 24 h following incubation (1 well was sampled per time point). Following 24 h incubation, remaining wells of cells were collected and centrifuged (Thermo Scientific Sorvall Legend X1R) at 1200 rpm for 5 minutes. Cells were washed 3 times with PBS and seeded on a new clear (Falcon) 12-well plate in fresh complete media. The cells were sampled at 3, 6, 24, 48, and 72 h following the drug washout. All cells were fixed in 4% PFA following sampling, and all samples from […] were analyzed together on a flow cytometer (BD).

[5] = system: eDHFR-YFP; assay: Degradation of eDHFR-YFP in HEK293T eDHFR-YFP+ cells, Western blot with anti-YFP antibody; assay type: cell-based, Escherichia coli; settings: 100 nM, 24 h
Description: HEK293T eDHFR-YFP (HEK293T^eDHFR-YFP+) and OVCAR8 eDHFR-luc (OVCAR8^eDHFR-luc+) cells are prepared in clear (Falcon) 6-well plates (5×10^5 cells/well) and cultured in complete media. Compound 7c is solubilized in 100% DMSO to 10 mM. 10 mM 7c is serially diluted in sterile water accordingly and each dose administered to cells in fresh media at equal volume, such that the final concentration of DMSO in cell media is <1%. Once incubation with drug is completed, media is removed by vacuum, cells are washed with phosphate-buffered saline (PBS), trypsonized at 37° C., quenched with media, and centrifuged (Thermo Scientific Sorvall Legend X1R) at 1000 RPM for 5 minutes. Media and cell debris are removed by vacuum.
Once cells are isolated by centrifugation (Thermo Scientific Sorvall Legend X1R), they are solubilized in radioimmunoprecipitation assay (RIPA) lysis buffer with protease inhibitor. Cell lysate is incubated on ice for 30 minutes, sonicated, then centrifuged (Thermo Scientific Sorvall Legend Micro 21R) at 14,800 RPM for 10 minutes. Supernatant is removed and transferred to a new Eppendorf tube.
Using Thermo Scientific bicinchoninic acid (BCA) assay kit, total cell protein is quantified and compared to bovine serum albumin (BSA) standards ranging from 10 to 0.625 mg/mL. Cell lysate is aliquoted into a 96-well clear plate (Falcon) and mixed with reagent and shaken at 37° C. for 30 minutes. Samples are analyzed by plate reader (ThermoFisher Varioskan Plusplate), where absorbance is measured at […]. A calibration curve is developed, and samples are prepared to equal mass (mg) of total protein for gel electrophoresis.
Cell lysate is prepared by mixing with 4 uL of loading dye and PBS to give equal total protein and equal total volume across all samples. Each sample is loaded into a NuPage gel (4-12% Bis-tris) and developed in NuPage MES Running Buffer. Once complete, the gel is removed and prepared for protein transfer to membrane. […]

[6] = system: eDHFR-YFP; assay: Washout experiment, eDHFR-YFP recovery in HEK293T eDHFR-YFP+ cells, Western blot; assay type: cell-based, Escherichia coli; settings: 100 nM 7c, washed twice with PBS
Description: HEK293T^eDHFR-YFP+ cells were seeded in a clear (Falcon) 12-well plate (3×10^5 cells/well) in complete media. The next day, cells were incubated with 100 nM 7c for 24 h in complete media. Media was removed by vacuum, cells were gently washed with 1 mL PBS 2×, then cell media was replenished. Next, cells were isolated +0 to 24 h after washing and prepared for Western blot analysis.
Protein degradation is reversed in as early as 4 h after drug removal from cell media.

[7] = system: FAP CAR-eDHFR direct fusion (DF); assay: Inhibitor test in primary human FAP-eDHFR DF CAR T cells, flow cytometry; assay type: cell-based; settings: primary human FAP-eDHFR DF CAR T cells
Description: Following pre-incubation, either 100 nM 7c or vehicle control DMSO (Sigma) was added to the wells, and cells were incubated with the drug for another 4 hours. Following incubation, the cells were washed and their surface CAR expression was assessed on a flow cytometer (BD Biosciences).
Following pre-incubation, the cells were incubated with 100 nM 7c for 4 hours and their CAR expression was assessed on a flow cytometer.

Structure (SMILES): COc1cc(Cc2cnc(N)nc2N)cc(OC)c1OCCCC(=O)NCCOCCOCCNc1cccc2c1C(=O)N(C1CCC(=O)NC1=O)C2=O (stereo not drawn) [Compound 7c, 4-(4-((2,4-diaminopyrimidin-5-yl)methyl)-2,6-dimethoxyphenoxy)-N-(2-(2-(2-((2-(2,6-dioxopiperidin-3-yl)-1,3-dioxoisoindolin-4-yl)amino)ethoxy)ethoxy)ethyl)butanamide]
- degradation of luciferase [1]: degraded
- IFNγ secretion across concentrations ([2]; different concentrations, 10:1 E:T): inhibition of CAR T cell signaling
- T cell IFNγ release / secretion [2]: inhibits
- T cell IFNγ release / secretion ([2]; listed as TMP-POM 7c): inhibition of CAR T cell signaling
- degradation of CAR molecules from the surface of Jurkat cells [3]: leads to degradation of CAR molecules from the surface of Jurkat cells
- time to full return of YFP expression to baseline following drug washout [4]: approximately 72 h
- eDHFR-YFP degradation at 100 nM [5]: causes eDHFR-YFP to degrade
- time after drug removal at which protein degradation is reversed [6]: ≤ 4 h
- mechanism of CAR downregulation [7]: proteosome-mediated degradation process
